Results from patent US6808873B2, “Screening assays using intramitochondrial calcium” (MitoKor, Inc., priority 2000, dated 2004).

What was measured:
[1] = system: calcium uniporter (CaUP); assay: Calcium uniporter (CaUP) functional assay, suspended permeabilized L6 cells, FLIPR; assay type: cell-based, rat; conditions: 5 microgram/milliliter oligomycin and 2 micromolar rotenone together, 16 micromolar Ca^2+; FIG. 9
Procedure: A series of functional assays were performed on non-adherent cell lines in order to optimize the mitochondria Ca—UP assay on FLIPR using Calcium-Green-5N and digitonin permeabilized cells. A dose response of Ca^2+ pulses with and without the addition of mitochondria oxidative respiration uncouplers were performed utilizing cells from […]. MM with thapsigarin, MM-T, and digitonin, MM-TD, are prepared as previously described. Ten times (10×) Ca^2+ media is prepared by adding CaCl2 (160 micromolar) to MM-T. The L6 cells were suspended in the cell permeabilizing respiratory media MM-TD at a concentration of 1×10^7 cells per milliliter. […] Emissions resulting from [Ca^2+:Calcium-Green-5N] complexes were monitored at the appropriate wavelength so as to follow changes in intracellular Ca^2+ levels throughout the assay.
Functional assays of the calcium uniporter (CaUP) were similarly performed on non-adherent L6 cells, as described above, with respiratory inhibitors oligomycin and rotenone in order to observe the effects of elimination of the membrane potential using this high throughput FLIPR. […] The emission wavelength was monitored and intracellular Ca^2+ levels observed throughout assay. […] When media with no Ca^2+ is added, the fluorescence changes only minimally (rows 3 and 4)] […]

[2] = molecular target: T1, Ca^2+ uniporter (Homo sapiens, UniProt Q8NE86); assay: Ca^2+ uniporter assay, digitonin-permeabilized suspended HepG2 cells, Calcium-Green-5N on FLIPR, ICMA added between two Ca^2+ pulses; assay type: cell-based; conditions: 5 micrograms/milliliter oligomycin, 2 micromolar rotenone, 1 micromolar FCCP; for release of sequestered Ca^2+ from mitochondria after addition of the agent: added about 3 min after first 12 micromolar Ca^2+ pulse, thapsigargin present; for mitochondrial uptake of the second Ca^2+ pulse: second Ca^2+ pulse at about t=6 min, 1 micromolar RU360
T1 construct: The effects of several intracellular Ca^2+ modulating agents (ICMAs) on permeabilized HepG2 cells were examined; endogenous in cells; host or cells: HepG2 (ATCC HB-8065), digitonin-permeabilized, in suspension
T1 sequence (Q8NE86 51-351): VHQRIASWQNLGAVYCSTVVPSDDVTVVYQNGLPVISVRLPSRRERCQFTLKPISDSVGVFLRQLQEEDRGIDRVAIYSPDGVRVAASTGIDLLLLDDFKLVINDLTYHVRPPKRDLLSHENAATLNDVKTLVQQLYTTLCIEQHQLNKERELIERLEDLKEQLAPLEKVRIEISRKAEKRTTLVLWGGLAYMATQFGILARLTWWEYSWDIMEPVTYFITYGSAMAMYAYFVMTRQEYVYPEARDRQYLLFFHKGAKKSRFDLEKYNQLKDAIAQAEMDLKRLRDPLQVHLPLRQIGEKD
T1 sequence (Q9H4I9 48-107 partner limits assumed): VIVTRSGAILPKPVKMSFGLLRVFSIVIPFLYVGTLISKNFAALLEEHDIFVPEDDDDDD
Procedure: A master mix solution (MM Solution) was prepared by the addition of glutamate and malate to final concentrations of 5 millimolar each, MgCl2 to a final concentration of 1 millimolar, EGTA to a final concentrations of 0 to 8 micromolar, and Calcium-Green-5N to a final concentration of 0.1 to 1.0 micromolar, to a basic KCl-based respiratory media (“BReM”) that is described in Table 3. […] The hexapotassiun salt Calcium-Green-5N (Molecular Probes, Eugene, Oreg.) in the MM Solution is a fluorescent dye that has low binding affinity to Ca^2+.
Thapsigargin (Calbiochem, San Diego, Calif.), a Ca^2+ uptake inhibitor of the endoplasmic reticulum (ER), was added to the MM Solution to a final concentration of 1 micromolar to yield a solution designated “MM-T” (i.e., Master Mix with Thapsigargin).
The cell membrane permeabilizing agent digitonin (Sigma, St. Louis, Mo.) was added to MM-T to a final concentration of from about 0.007% to about 0.03% to yield a solution referred to as “MM-TD” (i.e., Master Mix with Thapsigargin and digitonin. CaCl2 was added to MM-T to provide a solution with a determined final concentration of Ca^2+ for the determination of intracellular Ca^2+ flux.
The effects of several intracellular Ca^2+ modulating agents (ICMAs) on permeabilized HepG2 cells were examined as follows. The mitochondrial respiratory inhibitors oligomycin (Calbiochem, San Diego, Calif.) and rotenone (Calbiochem) were added to MM-T to final concentrations of 50 micrograms/milliliter and 20 micromolar, respectively. The uncoupler FCCP was similarly added to MM-T to a 10× concentration (10 micromolar) to yield a stock solution of FCCP, MM-TF (i.e., Master Mix with Thapsigargin and FCCP). The ICMA Ru360, which blocks Ca^2+ uptake into the mitochondria by the calcium uniporter, was added to MM-T to a concentration of 100 micromolar to yield MM-T360 (i.e., Master Mix with Thapsigragin and Ru360). CaCl2 was added to MM-T to yield a 10× solution of CaCl2 (120 micromolar) in MM-T.
HepG2 cells were cultured in Eagle's minimal essential medium (MEM) with non-essential amino acids, sodium pyruvate and Earle's balanced salt solution (BSS), 90%; fetal bovine serum (FBS), 10%. Cells were centrifuged (500×g) and the growth media was aspirated from the pellet. The HepG2 cells were resuspended in MM-TD at a concentration of 1×10^7 cells/milliliter, and 100 microliters of the resuspended permeabilized cells were dispensed into wells of a 96-well Costar 3603 microplate. The plate was placed into a FLIPR™ prewarmed to 37° C. MM-T, 120 micromolar Ca^2+, was dispensed into the cell-containing wells at a volume of 11.1 microliters, yielding a final assay concentration of 12 micromolar Ca^2+. The addition of Ca^2+ at this stage of the assay is referred to as the first calcium pulse and the time at which Ca^2+ is added is designated t=0.
After about three minutes (i.e., at about t=3 min.), 12.3 microliters of one of the ICMA solutions were dispensed into wells containing permeabilized cells to yield final assay concentrations of 5 micrograms/milliliter oligomycin, 2 micromolar rotenone, 1 micromolar FCCP, 1 micromolar RU360, and MM-T (no ICMA).
Cells were exposed to a second calcium pulse by the addition of 13.7 microliters of MM-T, 120 micromolar Ca^2+, to the cells after an additional 3 minutes (i.e., at about t=6 min.).

[3] = system: Ca^2+ uniporter; assay: Ca^2+ uniporter assay, adherent permeabilized MixCon cells, Calcium-Green-5N on FLIPR, with respiratory inhibitors; assay type: cell-based; conditions: 10 micromolar Ca^2+; for Ca^2+-5N fluorescence after the second Ca^2+ pulse, presence of succinate: oligomycin 5 micrograms/milliliter and rotenone 2 micromolar together (MM-GMS-TD-OR), 5 millimolar succinate; for Ca^2+-5N fluorescence after the second Ca^2+ pulse, presence of succinate / Ca^2+-5N fluorescence after the second Ca^2+ pulse, absence of succinate: FIG. 8; for signal corresponding to extramitochondrial calcium after each Ca^2+ pulse: oligomycin 5 micrograms/milliliter or rotenone 2 micromolar, three pulses, FIG. 7; for Ca^2+-5N fluorescence after the second Ca^2+ pulse, absence of succinate: oligomycin 5 micrograms/milliliter, rotenone 2 micromolar, glutamate/malate medium
Procedure: Mitochondrial inhibitors of oxidative phosphorylation, oligomycin and rotenone, were used to observe the effect of decreased membrane potential of mitochondria on cytosol Ca^2+ levels in the adherent cell line MixCon. The adherent MixCon cells in Dulbecco's modified Eagle's medium and 10% FBS growth media were dispensed into wells of a 96-well microtiter plate at a concentration of about 6×10^4 cells in 100 microliters per well 48 hours prior to assay. Just prior to their use the growth media was aspirated from the wells. Ninety (90) microliters of MM-TD with oligomycin (5 micrograms/milliliter) or rotenone (2 micromolar), or MM-TD without either inhibitor, were added to the cells. The plate was placed in a FLIPR™ system, and three doses of the 10× stock (100 micromolar) solution of calcium were dispensed into the different wells at approximately 2 minute intervals with increasing volumes (10, 11.1, and 12.3 microliters respectively), resulting in a constant concentration of 10 micomolar Ca^2+ throughout the course of the assay. Emissions at the 531 nm wavelength were monitored by a FLIPR™ as a measure of extramitochondrial Ca^2+-Green-5N fluorescence. The signal corresponding to extramitochondrial calcium increased after each pulse and, in samples when remained high when in the presence of the two inhibitors. Alternatively, Ca^2+ is sequestered in mitochondria of cells not exposed to inhibitors (FIG. 7).
Another assay was performed to examine the effect by the respiratory inhibitors oligomycin and rotenone and subsequent release of Ca^2+ from mitochondria in the presence or absence of succinate in MixCon cells. Two different master mixes (MM and MM-GMS) were prepared with MM prepared as previously described. MM-GMS was prepared by the addition of glutamate, malate and succinate to final concentrations of 5 millimolar each, MgCl2 to a final concentration of 1 millimolar, EGTA to a final concentration of 10 micromolar, and Calcium-Green-5N to a final concentration of 0.1 micromolar, to a basic KCl-based respiratory media (BReM, Table 3). Thapsigargin was added to the MM and MM-GMS to a final concentration of 1 micromolar to yield MM-T and MM-GMS-T (where “T” indicates Thapsigargin and “GMS” indicates glutamate, malate and succinate. The cell permeabilizing agent digitonin was added to MM-T and MM-GMS-T to a final concentration of 0.03% to yield solutions designated as MM-TD and MM-GMS-TD. As indicated in some instances, the mitochondrial inhibitors oligomycin and rotenone (Calbiochem) were each added to solutions of MM-TD and MM-GMS-TD to final concentrations of 5 micrograms/milliliter and 2 micromolar, respectively.
CaCl2 was added to MM-T and MM-GMS-T to a concentration of 50 micromolar Ca^2+ to yield 5× Ca^2+ solutions in MM-T and MM-GMS-T, respectively. Versions of the 5× Ca^2+ stock solutions comprising respiratory inhibitors were also prepared (oligomycin, final concentration of 50 micrograms/milliliter; rotenone, 20 micromolar).
The MixCon cells, in Dulbecco's modified Eagle's medium and 10% FBS growth media, were dispensed into wells of a 96-well Costar 3603 microtiter plate at a concentration of 6×10^4 cells in one hundred microliters per well, 48 hours prior to the assay. Just prior to their use the growth media was aspirated from the wells. Eighty (80) microliters of MM-TD, MM-GMS-TD, MM-TD-O, MM-TD-R, and MM-GMS-TD-OR (where “O” oligomycin and “R” signifies rotenone) were dispensed into wells containing the cells. The microtiter plate was placed in a FLIPR™ preheated to 37° C. and an initial injection of 20 microliters of the 5× stock solutions (50 micromolar) of Ca^2+, with olygomycin, rotenone or no additions, were dispensed into the appropriate wells such that the Ca^2+ concentration in the assay is 10 micromolar and wells with the inhibitors remain at constant assay concentrations.
A second pulse of 25 microliters of the 5× solution was supplied after approximately 5 minutes. […]

[4] = molecular target: T1, Ca^2+ uniporter; assay: High-throughput uniporter assay of different compounds, permeabilized HepG2 cells with and without thapsigargin, FLIPR II; assay type: cell-based; conditions: test compounds 1 micromolar
Description: The high-throughput uniporter assay protocol, carried out as described above for suspension cells, was used to determine the effect of different compounds on mitochondria and extramitochondrial Ca^2+ concentrations in the presence or absence of the Ca^2+ uptake inhibitor of the endoplasmic reticulum, thapsigargin (Calbiochem). Agents examined in this assay include calcium channel inhibitors, pro- and anti-oxidants, mitochondrial inhibitors and uncouplers, and the Ca—UP inhibitor Ru360. On the day of the assay, solutions of the respiratory/cell permeabilizing media containing digitonin with thapsigarin (MM-TD) and without thapsigarin (MM-D) were prepared as previously described. Calcium chloride was added to each to a final concentration of 6 micromolar Ca^2+, resulting in MM-TD, 6 uM Ca and MM-D, 6 uM Ca. A MM solution was prepared with a 10× Ca^2+ concentration of 200 micromolar for the second Ca^2+ pulse. The Ca^2+-uniporter inhibitor Ru360 was prepared at a 10× concentration of 100 microliters in MM. Ten times (10×) stock solutions of the other agents were prepared for the assay by the addition of the compounds to final concentrations of 10 micromolar into MM. […] Controls include water and 10% DMSO (Sigma) in MM.
Cells of the HepG2 cell line (hepatocellular carcinoma, ATCC HB-8065) were trypsinized from near-confluent flasks in growth media (Eagle's MEM with non-essential amino acids, sodium pyruvate and Earle's BSS, 90%; FBS 10%). Cells were centrifuged, growth media was aspirated, and cells were resuspended to a concentration of 1×10^7 cells per milliliter in MM-TD, 6 uM Ca, or MM-D, 6 uM Ca. One hundred (100) microliters of the cell suspension (about 1×10^6 cells) were delivered to wells of a microtiter plate. The plate was placed in a FLIPR™ II (used in 96-well format) warmed to 37° C. An 11.1 microliter aliquot of the 10× stock solutions with water or DMSO (controls), Ru360 (Ca—UP inhibitor), or the test compounds, were dispensed into designated wells such that the assay concentration of DMSO is 0.1%, Ru360 is 10 micromolar, and each of the test compounds are at 1 micromolar concentrations. After an additional three minutes, a second addition of 12.3 microliters of the 10× CaCl2 (200 micromolar Ca^2+), was dispensed into the wells of the microtiter plate resulting in assay concentrations of 20 micromolar Ca^2 (Extramitochondrial Ca^2+ bound to the calcium indicator dye was monitored throughout and profiles of each assay; the results are presented in FIG. 12, with all thapsigargin minus (thaps−) assays in wells corresponding to columns 1-6 and thapsigargin plus (thaps+) assays in wells corresponding to columns 7-12.

SMILES | mitochondrial sequestration of added Ca^2+ [1] | release of sequestered Ca^2+ from mitochondria after addition of the agent [2] | mitochondrial uptake of the second Ca^2+ pulse [2] | Ca^2+-5N fluorescence after the second Ca^2+ pulse, presence of succinate [3] | signal corresponding to extramitochondrial calcium after each Ca^2+ pulse [3] | Ca^2+-5N fluorescence after the second Ca^2+ pulse, absence of succinate [3] | uniporter activity profile after the 20 micromolar Ca^2+ pulse [4]
C=C(C)[C@H]1Cc2c(ccc3c2O[C@@H]2COc4cc(OC)c(OC)cc4[C@@H]2C3=O)O1 [rotenone] | Ca^2+ is not sequestered in the mitochondria | caused the release of Ca^2+ from mitochondria into the cytosol | could not sequester the added Ca^2+ | reduction of Ca^2+-5N fluorescence after the second Ca^2+ pulse | remained high | elevated levels of Ca^2+-5N fluorescence after the second Ca^2+ pulse | Ca^2+ can no longer be sequestered by the mitochondria
CC[C@H]1/C=C/C=C/C[C@@H](C)[C@H](O)[C@@](C)(O)C(=O)[C@@H](C)[C@H](O)[C@@H](C)C(=O)[C@@H](C)[C@H](O)[C@@H](C)/C=C/C(=O)O[C@@H]2[C@H](C)[C@H](CC1)O[C@]1(CC[C@H](C)[C@H](C[C@@H](C)O)O1)[C@H]2C [oligomycin] | Ca^2+ is not sequestered in the mitochondria | caused the release of Ca^2+ from mitochondria into the cytosol | could not sequester the added Ca^2+ | reduction of Ca^2+-5N fluorescence after the second Ca^2+ pulse | remained high | elevated levels of Ca^2+-5N fluorescence after the second Ca^2+ pulse | –
